Read-outs that look alike come from different tables or passages of the source.
Assays:
LTB4 receptor = molecular target: T1, LTB4 receptor (Homo sapiens, UniProt Q15722); assay: LTB4 receptor binding assay ((3H) LTB4, human neutrophils); conditions: Table 1
T1 construct: Neutrophils were purified from venous blood of normal human donors; endogenous in cells; host or cells: purified human blood neutrophils (intact cells)
Description: Neutrophils (4-6×10^6) in 1 ml Hanks' balanced salt solution containing 10 mM HEPES buffer (HBSS), pH 7.4 and 30 μM nordihydroguaiaretic acid were incubated with 0.6×10^-9 M (^3 H) LTB4 in the presence or absence of test compounds. The incubation was carried out at 0° C. for 45 minutes and terminated by adding 5 ml of ice-cold HBSS followed by rapid filtration of incubation mixture under vacuum through GF/C glass fiber filters. The filters were further washed with 10 ml HBSS and radioactivity was determined. Specific binding was defined as the difference between total binding and nonspecific binding which was not displaced by 10^-7 M unlabeled LTB4. All data refer to specific binding.

human neutrophils [1] = assay: Human neutrophil degranulation assay (LTB4-induced, myeloperoxidase release); type: cell-based; conditions: Table 1, LTB4 (5×10^-8 M)
Description: Neutrophils were purified from venous blood of normal human donors using standard techniques of dextran sedimentation, centrifugation on Ficoll-paque® (Pharmacia) or Histopaque® sterile solution (Sigma) and hypotonic lysis of erythrocytes (Boyum, A., Isolation of Leukocytes From Human Blood: Further Observations. Scand. J. Lab. Clin. Invest., 21 (Suppl. 97): 31, 1968). The purity of isolated neutrophils was >95%.
Neutrophil degranulation was determined by measuring the release of myeloperoxidase activity into the incubation medium. Neutrophils (3×10^6) in 1 ml HBSS solution were preincubated with cytochalasin B (5 μg) at 37° C. for 5 minutes, followed by preincubation with test compounds for 7 minutes. Neutrophils were then incubated for 2 to 20 minutes with either LTB4 (5×10^-8 M) or the chemotactic peptide f-met-leu-phe (5×10^-6 M) to induce degranulation. Following incubation, samples were centrifuged and myeloperoxidase was extracted from the cell pellets by sonication in phosphate buffer containing 0.4% Triton X-100. Triton X-100 was also added to the supernatants to a concentration of 0.4%. The supernatants and the pellet - extracts were then assayed spectrophotometrically for myeloperoxidase activity by determining the rate of decomposition of H2 O2 with o-dianisidine as hydrogen donor as described by Renlund, et al. (Renlund, D. G., MacFarlane, J. L., Christensen, R. D., Lynch, R. E., and Rothstein, G., A Quantitative And Sensitive Method For Measurement Of Myeloperoxidase, Clinical Research 28:75A, 1980). Myeloperoxidase activity released into the supernatant was expressed as the percent of the average total activity (pellet plus supernatant).

human neutrophils [2] = assay: Modified Boyden chamber chemotaxis (LTB4, human neutrophils); type: cell-based; conditions: Neutrophil
Description: Human neutrophils were isolated from citrated peripheral blood using standard techniques of dextran sedimentation, followed by centrifugation on Histopaque® sterile solution (Sigma) or Ficoll-paque® (Pharmacia) and hypotonic lysis of erythrocytes. A final cell suspension of 3.4×10^6 neutrophils/ml of HEPES-buffered Hanks balanced salt solution (HBSS, pH 7.3) was added to the upper well (0.8 ml) of a modified Boyden chamber (blind well). The lower well (0.2 ml), separated by a polycarbonate membrane (Nuleopore Corp.), contained HBSS or 3×10^-8 M LTB4 in the presence of absence of test compound. Following a 90 minute incubation at 37° C. in 5% CO2 -95% air, cells from the lower well were lysed and nuclei counted in a Model S-Plus-IV Coulter Counter. Percent inhibition was calculated from cell counts corrected for random migration by subtracting the mean of the HBSS control.

guinea pig ileum = molecular target: T2, guinea pig ileum (Cavia porcellus, UniProt Q2NNR5); assay: LTD4 antagonism in guinea pig ileum (contraction); conditions: for Kb: read-out: Guinea Pig Ileum Contraction pA2 (converted)
T2 construct: from tissue; host or cells: guinea pig ileum segments
T2 sequence (Q2NNR5 1-340): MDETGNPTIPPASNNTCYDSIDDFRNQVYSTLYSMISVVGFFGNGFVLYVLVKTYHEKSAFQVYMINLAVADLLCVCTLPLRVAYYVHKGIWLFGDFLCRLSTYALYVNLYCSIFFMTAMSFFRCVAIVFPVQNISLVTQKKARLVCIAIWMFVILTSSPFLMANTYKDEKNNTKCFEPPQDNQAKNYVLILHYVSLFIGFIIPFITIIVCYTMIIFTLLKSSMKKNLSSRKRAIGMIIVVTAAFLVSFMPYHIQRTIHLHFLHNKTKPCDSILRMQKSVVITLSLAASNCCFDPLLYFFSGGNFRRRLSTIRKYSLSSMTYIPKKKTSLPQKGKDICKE
Description: Fresh segments of guinea pig ileum were suspended in 2 ml. tissue baths containing oxygenated modified Tyrodes solution. […] The ileum segments were washed and rested between exposures to agonist. Following this, the tissues were incubated with a single concentration of test compound and the agonist dose-response procedure was repeated. The dose ration is a measure of the antagonist's ability to shift the agonist dose-response curve to the right. It is derived as the concentration of agonist necessary to reach a given response level in the present (A') versus the absence (A) of antagonist. For example, if the test concentration of compound had no effect on the agonist-induced response (A'=A) the dose-ratio would approximate 1. […] One dose-ratio value is determined for each strip of ileum used to test antagonist. […] Schild analysis examines the linearity of the function described by the dose-ratios written as log (A'/A) versus antagonist concentration. If linearity is confirmed and the slope approximates -1, inhibition is considered to be competitive. […] This value is considered to be a measure of the affinity of the competitive antagonist.

LTD4 receptor = molecular target: T3, LTD4 receptor (Cavia porcellus, UniProt Q2NNR5); assay: LTD4 receptor binding assay using guinea pig lung membrane preparations; conditions: for Receptor Binding LTD4 IC50: Table 1, results are from Table 3, 10^-5 M
T3 construct: from tissue; host or cells: lung membranes of male Hartley guinea pigs
T3 sequence (Q2NNR5 1-340): T2 sequence (Q2NNR5 1-340)
Description: MEMBRANE PREPARATIONS: For each membrane preparation, 10-11 male Hartley guinea pigs, weighing less than 350 gm, were sacrificed by guillotine. The lungs were rapidly removed and placed in ice-cold 50 mM Trisma 7.0 buffer. After all the lungs were collected, each was probed free of bronchial tissue to at least the level of tertiary branching as observed through a dissecting lamp. The tissue was minced with a razor blade on a damp paper towel and placed into fresh ice-cold Trisma 7.0 buffer. When all the tissues had been processed, they were pooled, drained and weighed. Nine volumes of cold buffer were added and the tissue was polytroned for 6-10 second bursts with a 1 minute cool down period in an ice bath between each burst. The homogenate was filtered through a gauze pad and centrifuged at 1085× g for 15 minutes at 4° C. Supernatants were saved and centrifuged at 40,000× g for 20 minutes at 4° C. This time, supernatants were discarded and the pellets were resuspended in 30-35 ml fresh Trisma 7.0 buffer by 1-10 second bursts with the polytron. The materials were centrifuged again at 40,000× g. Supernatants were again discarded. Each pellet was resuspended again with approximately 7 ml buffer. All this material was pooled into a 100 ml polypropylene container and stirred with a magnetic stirring bar. The tubes were rinsed with small amounts of buffer and the rinse was added to the membrane preparation. The homogenized membranes were aliquoted into 1.5 ml microfuge tubes and frozen at -70° C. Three aliquots were submitted for protein determinations by FPB (fluorescamine protein binding) assay.
Unless otherwise indicated, all binding experiments were performed in a final incubation volume of 250 μl. […] Both materials were received in solutions. […] Both solutions were brought to appropriate assay concentrations by dilution in assay buffer consisting of 50 mM Trisma 7.4 with 5 mM L-cysteine and 20 mM CaCl2. Membranes were also diluted with this assay buffer. […] Diluent was added to all other appropriate control tubes. Incubations were conducted for 30 minutes at 25° C. in a shaking water bath. Termination of the reaction was achieved by pouring the incubate over 2.5 cm Whatman GF/C filters soaked in assay buffer and set over the ports of Millipore filter vacuum manifolds. Filters were rinsed with 4 ml ice cold assay buffer 3 times. The filters were removed, placed in 10 ml Aquasol scintillation cocktail and allowed to cool in the dark for 2 hours prior to counting. All samples were corrected for background and isotope decay before converting DPM determination to mass.
These values were logit-transformed and linear regression was performed on the dose-response data. All dose-response sets used to calculate IC50 values contained data from 3-6 compound concentrations. […] IC50 values were calculated from the regression equation for the line.
male guinea pig lung homogenate which was aliquoted and stored at
-70° C. The particular preparation used to test the compounds of
Protein concentrations in these assays were adjusted
to provide aproximately 0.1 nM receptor in the presence of lnM ^3
HLTD4. Incubation was conducted for 30 min.
at 24° C. and filtration methods were used to separate bound from
tested were intially solubilized in DMSO. Each compound was evaluated at
dose of 10 μM (10^-5 M) in triplicate in 2 separate assays. The

[3] = read-out: LTD4 Receptor Binding Activity
[4] = read-out: LTD4 Receptor Binding Percent Inhibition, Test #1, triplicate, 30 min, 24° C.
[5] = read-out: LTD4 Receptor Binding Percent Inhibition, Test #2, triplicate, 30 min, 24° C.

T1 sequence (Q15722 whole entry): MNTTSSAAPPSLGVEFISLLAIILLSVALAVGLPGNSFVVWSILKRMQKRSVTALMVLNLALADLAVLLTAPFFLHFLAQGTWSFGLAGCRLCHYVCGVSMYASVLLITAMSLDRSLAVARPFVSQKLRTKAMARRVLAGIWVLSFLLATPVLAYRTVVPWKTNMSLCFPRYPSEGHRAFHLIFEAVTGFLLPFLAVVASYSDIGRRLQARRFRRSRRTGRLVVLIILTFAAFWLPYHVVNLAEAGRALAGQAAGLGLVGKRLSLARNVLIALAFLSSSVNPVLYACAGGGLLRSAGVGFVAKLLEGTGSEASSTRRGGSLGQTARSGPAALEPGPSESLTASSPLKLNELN

Row | IC50 (LTB4 receptor) | IC50 (human neutrophils [1]) | IC50 (human neutrophils [2]) | Kb (guinea pig ileum) | Receptor Binding LTD4 IC50 (LTD4 receptor) | inhibition at 10 µM (LTD4 receptor; [3]) | inhibition at 10 µM (LTD4 receptor; [4]) | inhibition at 10 µM (LTD4 receptor; [5]) | Guinea Pig Ileum Contraction pA2 (guinea pig ileum; Table 2, LTD4 agonist) | Structure (SMILES)
1 | 500 nM | 3700 nM | 3600 nM | 182 nM | Inactive | < 45% | 28.9% | 34.4% |  | CCCc1c(OCCCOc2ccc3c(=O)cc(C(=O)O)oc3c2CCC)ccc(C(C)=O)c1OC [Example 7, 7-[3-(4-acetyl-3-methoxy-2-propylphenoxy)propoxy]-4-oxo-8-propyl-4H-1-benzopyran-2-carboxylic acid]
2 | 500 nM | 1500 nM | 6600 nM |  |  |  |  |  | Inactive | CCCc1c(OCCCCCOc2ccc(C(C)=O)c(OC)c2CCC)ccc2c1OC(C(=O)O)CC2 (stereo not drawn) [Example 15, 7-[[5-(4-acetyl-3-methoxy-2-propylphenoxy)pentyl]oxy]-3,4-dihydro-8-propyl-2H-1-benzopyran-2-carboxylic acid]
3 | 500 nM | 40 nM | 1700 nM | 316 nM | Inactive | < 45% | 13% | 23.5% |  | CCCc1c(OCCCOc2ccc(C(C)=O)c(OC)c2CCC)ccc2c1OC(CCC(=O)O)CC2 (stereo not drawn) [Example 20, 7-[3-(4-acetyl-3-methoxy-2-propylphenoxy)propoxy]-3,4-dihydro-8-propyl-2H-1-benzopyran-2-propanoic acid]
4 |  |  |  | 25.1 nM |  |  |  |  |  | CCCc1c(OCCCOc2ccc3c(c2CCC)OC(C(=O)O)CC3)ccc(C(C)=O)c1O (stereo not drawn) [reference compound]

Reference: patent publication US4889871A, “Alkoxy-substituted dihydrobenzopyran-2-carboxylate derivatives” (G. D. Searle & Co., priority 1988, dated 1989)
